Active and inactive are the calls of the source. The calls are words filed in the database; no cut-off is given here.
What was measured:
RNA demethylase ALKBH5 [1] = biological target: T1, RNA demethylase ALKBH5 (Homo sapiens, UniProt Q6P6C2); experiment: Binding affinity to biotinylated ALKBH5 (66 to 292 residues)(unknown origin) expressed in Escherichia coli BL21(DE3) assessed as equilibrium dissociation constant by BLI assay
Target sequence in this assay (Q6P6C2 whole entry, the tested form may be a part): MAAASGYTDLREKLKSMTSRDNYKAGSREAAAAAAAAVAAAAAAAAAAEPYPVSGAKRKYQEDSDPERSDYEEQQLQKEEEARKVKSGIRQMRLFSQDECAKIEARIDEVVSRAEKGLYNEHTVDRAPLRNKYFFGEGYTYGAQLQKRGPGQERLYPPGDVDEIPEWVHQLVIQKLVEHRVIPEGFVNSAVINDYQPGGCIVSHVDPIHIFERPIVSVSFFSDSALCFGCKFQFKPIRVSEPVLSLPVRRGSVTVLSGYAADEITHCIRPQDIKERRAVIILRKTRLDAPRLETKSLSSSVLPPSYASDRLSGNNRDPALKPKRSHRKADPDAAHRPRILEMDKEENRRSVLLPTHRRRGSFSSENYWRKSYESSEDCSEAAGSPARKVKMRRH

RNA demethylase ALKBH5 [2] = biological target: RNA demethylase ALKBH5 (Homo sapiens, UniProt Q6P6C2, Y139A); experiment: Binding affinity to NT-647-NHS fluorescent dye-labeled ALKBH5 Y139A mutant (unknown origin) expressed in Escherichia coli BL21(DE3) using m6A-ssDNA as substrate assessed as dissociation constant incubated for 15 mins by MST assay
RNA demethylase ALKBH5 (Homo sapiens, UniProt Q6P6C2, Y139A), sequence (Q6P6C2 2-394 Y139A limits assumed): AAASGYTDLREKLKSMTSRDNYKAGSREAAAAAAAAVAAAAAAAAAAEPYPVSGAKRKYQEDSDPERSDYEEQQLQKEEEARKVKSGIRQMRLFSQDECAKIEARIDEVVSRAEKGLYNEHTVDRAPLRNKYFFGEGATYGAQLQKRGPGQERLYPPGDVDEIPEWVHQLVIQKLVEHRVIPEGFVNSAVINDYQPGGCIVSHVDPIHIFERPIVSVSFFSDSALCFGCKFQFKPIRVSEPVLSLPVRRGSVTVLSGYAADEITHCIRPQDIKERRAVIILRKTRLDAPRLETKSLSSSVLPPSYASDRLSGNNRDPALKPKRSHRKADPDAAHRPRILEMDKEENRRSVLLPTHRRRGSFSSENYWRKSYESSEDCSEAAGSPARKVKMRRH

RNA demethylase ALKBH5 [3] = biological target: RNA demethylase ALKBH5 (Homo sapiens, UniProt Q6P6C2, R277A/Y139A); experiment: Binding affinity to NT-647-NHS fluorescent dye-labeled ALKBH5 Y139A/R277A mutant (unknown origin) expressed in Escherichia coli BL21(DE3) using m6A-ssDNA as substrate assessed as dissociation constant incubated for 15 mins by MST assay
RNA demethylase ALKBH5 (Homo sapiens, UniProt Q6P6C2, R277A/Y139A), sequence (Q6P6C2 2-394 Y139A/R277A limits assumed): as the sequence (Q6P6C2 2-394 Y139A limits assumed) above, with R276A counted along it

RNA demethylase ALKBH5 [4] = biological target: T1, RNA demethylase ALKBH5; experiment: Competitive binding affinity to ALKBH5 (66 to 292 residues)(unknown origin) expressed in Escherichia coli BL21(DE3) using 5'-ATTGTCA(m6A)CAGCAGA-FAM-3' as substrate assessed as dissociation constant incubated for 30 mins in presence of 2-OG by FP assay
Target sequence in this assay (Q6P6C2 whole entry, the tested form may be a part): as the sequence (Q6P6C2 whole entry, the tested form may be a part) above

RNA demethylase ALKBH5 [5] = biological target: T1, RNA demethylase ALKBH5; experiment: Inhibition of ALKBH5 (66 to 292 residues)(unknown origin) expressed in Escherichia coli BL21(DE3) using 5'-ATTGTCA(m6A)CAGCAGA-FAM-3' as substrate incubated for 30 mins in presence of 200 uM of 2-OG by FP based competitive binding assay
Target sequence in this assay (Q6P6C2 whole entry, the tested form may be a part): as above

RNA demethylase ALKBH5 [6] = biological target: T1, RNA demethylase ALKBH5; experiment: Inhibition of ALKBH5 (66 to 292 residues)(unknown origin) expressed in Escherichia coli BL21(DE3) using 5'-ATTGTCA(m6A)CAGCAGA-FAM-3' as substrate incubated for 30 mins in presence of 20 uM of 2-OG by FP based competitive binding assay
Target sequence in this assay (Q6P6C2 whole entry, the tested form may be a part): as above

RNA demethylase ALKBH5 [7] = biological target: T1, RNA demethylase ALKBH5; experiment: Inhibition of ALKBH5 (66 to 292 residues)(unknown origin) expressed in Escherichia coli BL21(DE3) using 5'-ATTGTCA(m6A)CAGCAGA-FAM-3' as substrate incubated for 30 mins in presence of 2 uM of 2-OG by FP based competitive binding assay
Target sequence in this assay (Q6P6C2 whole entry, the tested form may be a part): as above

RNA demethylase ALKBH5 [8] = biological target: T1, RNA demethylase ALKBH5; experiment: Inhibition of ALKBH5 (66 to 292 residues)(unknown origin) expressed in Escherichia coli BL21(DE3) using 5'-ATTGTCA(m6A)CAGCAGA-FAM-3' as substrate incubated for 30 mins in presence of 0.2 uM of 2-OG by FP based competitive binding assay
Target sequence in this assay (Q6P6C2 whole entry, the tested form may be a part): as above

[9] = biological target: Alpha-ketoglutarate-dependent dioxygenase FTO (Homo sapiens, UniProt Q9C0B1); experiment: Inhibition of FTO (32 to 505 residues)(unknown origin) expressed in Escherichia coli BL21(DE3) using 5'-TAGACATTGCCATTCTCGATAGG(m6A)-TCCGGTCAAACCTAGACGAATTCCA-3' as substrate at 100 uM incubated for 2 hrs by restriction endonuclease digestion assay
Alpha-ketoglutarate-dependent dioxygenase FTO, sequence (Q9C0B1 whole entry, looked up, the tested form may be a part): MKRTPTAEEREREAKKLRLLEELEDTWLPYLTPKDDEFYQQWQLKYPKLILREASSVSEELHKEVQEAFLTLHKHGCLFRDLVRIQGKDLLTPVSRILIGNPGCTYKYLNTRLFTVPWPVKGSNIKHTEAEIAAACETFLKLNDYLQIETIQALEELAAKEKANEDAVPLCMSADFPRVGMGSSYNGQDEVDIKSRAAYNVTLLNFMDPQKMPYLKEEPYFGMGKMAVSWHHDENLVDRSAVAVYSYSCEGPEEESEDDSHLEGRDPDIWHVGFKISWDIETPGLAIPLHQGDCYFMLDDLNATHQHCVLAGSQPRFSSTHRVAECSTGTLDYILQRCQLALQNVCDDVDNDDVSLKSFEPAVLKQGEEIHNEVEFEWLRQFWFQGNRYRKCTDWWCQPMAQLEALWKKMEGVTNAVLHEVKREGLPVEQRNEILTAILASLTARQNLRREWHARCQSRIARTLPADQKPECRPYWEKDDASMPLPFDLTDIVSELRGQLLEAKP

RNA demethylase ALKBH5 [10] = biological target: T1, RNA demethylase ALKBH5; experiment: Inhibition of ALKBH5 in human MOLM-13 cells assessed as increase in m6A RNA level by colorimetric assay; format: cell-based; conditions: dose 10-20 µM
Target sequence in this assay (Q6P6C2 2-394 limits assumed): as the sequence (Q6P6C2 2-394 Y139A limits assumed) above, with A138Y counted along it

HUVEC [11] = experiment: Antiproliferative activity against HUVEC cells assessed as inhibition of cell proliferation incubated for 72 hrs by Cell Titer Luminescence assay; format: functional, cell-based; conditions: Homo sapiens
MOLM-13 [12] = experiment: Induction of cell cycle arrest at […] phase in human MOLM-13 cells at 20 uM incubated for 48 hrs by […]PI staining based flow cytometry; format: functional
MV4-11 [13] = experiment: Induction of apoptosis in human MV4-11 cells assessed as viable cells at 5 uM incubated for 48 hrs by Annexin V-FITC/PI staining based flow cytometry (reference value: 89.8 %); format: functional; conditions: read-out: Activity
MV4-11 [14] = experiment: Induction of apoptosis in human MV4-11 cells assessed as early apoptosis cells at 5 uM incubated for 48 hrs by Annexin V-FITC/PI staining based flow cytometry (reference value: 1.24 %); format: functional
MV4-11 [15] = experiment: Induction of apoptosis in human MV4-11 cells assessed as late apoptosis cells at 5 uM incubated for 48 hrs by Annexin V-FITC/PI staining based flow cytometry (reference value: 7.17 %); format: functional
MV4-11 [16] = experiment: Induction of apoptosis in human MV4-11 cells assessed as early apoptosis cells at 10 uM incubated for 48 hrs by Annexin V-FITC/PI staining based flow cytometry (reference value: 1.24 %); format: functional
MOLM-13 [17] = experiment: Induction of apoptosis in human MOLM-13 cells assessed as viable cells at 10 uM incubated for 48 hrs by Annexin V-FITC/PI staining based flow cytometry (reference value: 89.8 %); format: functional; conditions: read-out: Activity
MOLM-13 [18] = experiment: Downregulation of TACC3 level in human MOLM-13 cells upto 10 uM incubated for 48 hrs by Western blot analysis; format: functional, cell-based
MV4-11 [19] = experiment: Downregulation of TACC3 level in human MV4-11 cells upto 10 uM incubated for 48 hrs by Western blot analysis; format: functional, cell-based
MOLM-13 [20] = experiment: Downregulation of c-Myc level in human MOLM-13 cells upto 10 uM incubated for 48 hrs by Western blot analysis; format: functional, cell-based
MV4-11 [21] = experiment: Downregulation of c-Myc level in human MV4-11 cells upto 10 uM incubated for 48 hrs by Western blot analysis; format: functional, cell-based
HEK293 [22] = experiment: Effect on TACC3 mRNA level in HEK293 cells at 5 to 10 uM incubated for 48 hrs by qRT-PCR analysis; format: functional, cell-based; conditions: Homo sapiens, dose 5-10 µM
HUVEC [23] = experiment: Effect on c-Myc mRNA level in HUVEC cells at 5 to 10 uM incubated for 48 hrs by qRT-PCR analysis; format: functional, cell-based; conditions: Homo sapiens, dose 5-10 µM
HEK293 [24] = experiment: Effect on TACC3 level in HEK293 cells upto 10 uM incubated for 48 hrs by Western blot analysis; format: functional, cell-based; conditions: Homo sapiens
HUVEC [25] = experiment: Effect on c-Myc level in HUVEC cells upto 10 uM incubated for 48 hrs by Western blot analysis; format: functional, cell-based; conditions: Homo sapiens
[26] = Metabolic stability in rat plasma assessed as half life measured upto 240 mins by LC-MS/MS analysis; format: ADME, cell-free
[27] = Metabolic stability in human liver microsomes assessed as half life measured upto 240 mins by LC-MS/MS analysis; format: ADME, Microsome
[28] = Half life in Sprague-Dawley rat at 2 mg/kg, iv measured for 1 to 1440 mins by LC-MS/MS analysis; format: ADME, organism-based; conditions: in vivo, time 1-1440 min
[29] = Cmax in Sprague-Dawley rat at 2 mg/kg, iv measured for 1 to 1440 mins by LC-MS/MS analysis; format: ADME, organism-based; conditions: in vivo
[30] = MRT in Sprague-Dawley rat at 2 mg/kg, iv measured for 1 to 1440 mins by LC-MS/MS analysis; format: ADME, organism-based; conditions: in vivo, time 1-1440 min
MV4-11 [31] = experiment: Antitumor activity against human MV4-11 cells xenografted in nude mouse assessed as tumor growth inhibition at 20 mg/kg, ip treated every day for 14 days relative to control; format: functional; conditions: MV4-11, 336 h, time 14 day, read-out: TGI
[32] = Toxicity in nude mouse xenografted with human MV4-11 cells assessed as body weight change at 10 to 40 mg/kg, ip treated every day for 14 days; format: organism-based; conditions: in vivo, 336 h, dose 10-40 mg/kg, time 14 day

`O=C(OCc1ccc(C(F)(F)F)cc1)c1ccc(-c2cc3ncc(C(=O)c4c(O)ccc([N+](=O)[O-])c4O)cn3n2)cc1` gave a Kd (RNA demethylase ALKBH5 [1]) of 6.62 µM, a Kd (RNA demethylase ALKBH5 [2]) of 290 µM and a Kd (RNA demethylase ALKBH5 [3]) of 15.8 µM. The Kd (RNA demethylase ALKBH5 [4]) was roughly 0.0657 µM, the IC50 (RNA demethylase ALKBH5 [5]) was 4.46 µM and the IC50 (RNA demethylase ALKBH5 [6]) was 4.32 µM. For the same compound, the IC50 (RNA demethylase ALKBH5 [7]) was 4.64 µM, the IC50 (RNA demethylase ALKBH5 [8]) was 4.89 µM and the inhibition [9] was “inactive”. For the same compound, the inhibition (RNA demethylase ALKBH5 [10]) was “Dose-Dependent Effect”, the IC50 (HUVEC [11]) was 165 µM and the Activity (MOLM-13 [12]) was “Active”. The viability at 5 µM (MV4-11 [13]) was 59%, the Activity (MV4-11 [14]) was 1.44% and the Activity (MV4-11 [15]) was 36%. The Activity (MV4-11 [16]) was 2.59%, the viability at 10 µM (MOLM-13 [17]) was 61.5% and the Activity (MOLM-13 [18]) was “Active”. For the same compound, the Activity (MV4-11 [19]) was “Active”, the Activity (MOLM-13 [20]) was “Active” and the Activity (MV4-11 [21]) was “Active”. The Activity (HEK293 [22]) was “inactive”, the Activity (HUVEC [23]) was “inactive” and the Activity (HEK293 [24]) was “inactive”. For the same compound, the Activity (HUVEC [25]) was “inactive”, the half-life [26] was 4.18 h and the half-life [27] was 7.17 h. It also gave a half-life [28] of 0.612 h, a Cmax [29] of 13400 ng/mL and an MRT [30] of 1.3 h. For the same compound, the inhibition in vivo at 20 mg/kg (MV4-11 [31]) was 68.9% and the Activity [32] was “Non-Toxic”.
